Reference: patent publication US11231416B2, “Virus-like particle (VLP) based small molecule-protein interaction trap” (VIB VZW, priority 2015, dated 2022)

Assays:
PTPLAD1 = target: T1, PTPLAD1 (Homo sapiens, UniProt Q9P035); assay: Viral trapping in VLPs, MS analysis; format: binding; conditions: all proteins (incl. low confidence identifications)
T1 construct: endogenous in cells; host or cells: HEK293T
Description: (§1) For mass spectrometry, 10^7 HEK293T cells were seeded in five flasks (75 cm^2) and transfected the next day with a total of 15 μg DNA per flask using polyethylene imine reagent. The following DNA quantities were used per flask: 7.5 μg of GAG-eDHFR, 5.4 μg of mock vector and 2.1 μg of a 50/50 mix of pMD2.G and pcDNA3-FLAG-VSV-G. The small molecule fusions were added immediately after transfection to the producing cells at a concentration of 1 μM. The same dilution of dimethyl sulfoxide (DMSO) was added in control experiments to control the effect of this chemical on the cells. The cellular supernatant was harvested after 32 hours and was centrifuged for 3 minutes at 450×g to remove cellular debris. The cleared supernatant was then filtered using 0.45 μm filters (Millipore). A total of 100 μl MyOne™ Streptavidin T1 beads (Life Technologies) pre-loaded with 10 μg ANTI-FLAG® BioM2-Biotin antibody (Sigma-Aldrich®) was used to bind the tagged particles. Particles were allowed to bind for 2 hours by end-over-end rotation. The total supernatant was processed in three consecutive binding steps. Bead-particle complexes were washed once with washing buffer (TWB: 20 mM Tris-HCl pH 7.5, 150 mM NaCl) and were then eluted with FLAG peptide (200 μg/ml in TWB) and lysed by addition of SDS to a final concentration of 0.1%. After 5 minutes, SDS was removed using HiPPR Detergent Removal Spin Columns (Pierce, Thermo Scientific) followed by boiling and overnight digestion with 0.5 μg sequence-grade trypsin (Promega). After acidification (0.1% TFA final), the peptides were separated by nano-LC and directly analyzed with a Q Exactive instrument (Thermo Scientific).
(§2) For tamoxifen, four biological repeats were performed where the cells were treated with MTX-PEG6-tamoxifen after transfection. The obtained protein lists after viral trapping and MS analysis were challenged with protein lists coming from the four DMSO controls, the 19 control experiments and the lists obtained for the MTX-PEG6-simvastatin and MTX-PEG6-reversine (see below) for a total of 30 samples.

RTN4 = target: T2, RTN4 (Homo sapiens, UniProt Q9NQC3); assay: Viral trapping in VLPs, MS analysis; format: binding
T2 construct: endogenous in cells; host or cells: HEK293T
Description: as §1, §2

SEC61G = target: T3, SEC61G (Homo sapiens, UniProt P60059); assay: Viral trapping in VLPs, MS analysis; format: binding
T3 construct: endogenous in cells; host or cells: HEK293T
Description: as §1, §2

ECE1 = target: T4, ECE1 (Homo sapiens, UniProt P42892); assay: Viral trapping in VLPs, MS analysis; format: binding
T4 construct: endogenous in cells; host or cells: HEK293T
Description: as §1, §2

ILVBL = target: T5, ILVBL (Homo sapiens, UniProt A1L0T0); assay: Viral trapping in VLPs, MS analysis; format: binding; conditions: all proteins (incl. low confidence identifications)
T5 construct: endogenous in cells; host or cells: HEK293T
Description: as §1, §2

NCS1 = target: T6, NCS1 (Homo sapiens, UniProt P62166); assay: Viral trapping in VLPs, MS analysis; format: binding; conditions: all proteins (incl. low confidence identifications)
T6 construct: endogenous in cells; host or cells: HEK293T
Description: as §1, §2

SEMA4G = target: T7, SEMA4G (Homo sapiens, UniProt Q9NTN9); assay: Viral trapping in VLPs, MS analysis; format: binding; conditions: all proteins (incl. low confidence identifications)
T7 construct: endogenous in cells; host or cells: HEK293T
Description: as §1, §2

PRAF2 = target: T8, PRAF2 (Homo sapiens, UniProt O60831); assay: Viral trapping in VLPs, MS analysis; format: binding; conditions: all proteins (incl. low confidence identifications)
T8 construct: endogenous in cells; host or cells: HEK293T
Description: as §1, §2

DNAJB12 = target: T9, DNAJB12 (Homo sapiens, UniProt Q9NXW2); assay: Viral trapping in VLPs, MS analysis; format: binding; conditions: all proteins (incl. low confidence identifications)
T9 construct: endogenous in cells; host or cells: HEK293T
Description: as §1, §2

SREBF2 = target: T10, SREBF2 (Homo sapiens, UniProt Q12772); assay: Viral trapping in VLPs, MS analysis; format: binding; conditions: all proteins (incl. low confidence identifications)
T10 construct: endogenous in cells; host or cells: HEK293T
Description: as §1, §2

HSD17B12 = target: T11, HSD17B12 (Homo sapiens, UniProt Q53GQ0); assay: Viral trapping in VLPs, MS analysis; format: binding; conditions: all proteins (incl. low confidence identifications)
T11 construct: endogenous in cells; host or cells: HEK293T
Description: as §1, §2

CGN1 = target: T12, CGN1 (Bos taurus, UniProt P23805); assay: Viral trapping in VLPs, MS analysis; format: binding; conditions: all proteins (incl. low confidence identifications)
T12 construct: host or cells: VLPs from HEK293T supernatant
Description: as §1, §2

HSD17B4 = target: T13, HSD17B4 (Homo sapiens, UniProt P51659); assay: Binary MASPIT assay; format: cell-based; conditions: HEK293T cells, 100 ng/ml leptin, 24 hours; FIG. 4
T13 construct: endogenous in cells; host or cells: HEK293T
T13 sequence (P51659 1-736): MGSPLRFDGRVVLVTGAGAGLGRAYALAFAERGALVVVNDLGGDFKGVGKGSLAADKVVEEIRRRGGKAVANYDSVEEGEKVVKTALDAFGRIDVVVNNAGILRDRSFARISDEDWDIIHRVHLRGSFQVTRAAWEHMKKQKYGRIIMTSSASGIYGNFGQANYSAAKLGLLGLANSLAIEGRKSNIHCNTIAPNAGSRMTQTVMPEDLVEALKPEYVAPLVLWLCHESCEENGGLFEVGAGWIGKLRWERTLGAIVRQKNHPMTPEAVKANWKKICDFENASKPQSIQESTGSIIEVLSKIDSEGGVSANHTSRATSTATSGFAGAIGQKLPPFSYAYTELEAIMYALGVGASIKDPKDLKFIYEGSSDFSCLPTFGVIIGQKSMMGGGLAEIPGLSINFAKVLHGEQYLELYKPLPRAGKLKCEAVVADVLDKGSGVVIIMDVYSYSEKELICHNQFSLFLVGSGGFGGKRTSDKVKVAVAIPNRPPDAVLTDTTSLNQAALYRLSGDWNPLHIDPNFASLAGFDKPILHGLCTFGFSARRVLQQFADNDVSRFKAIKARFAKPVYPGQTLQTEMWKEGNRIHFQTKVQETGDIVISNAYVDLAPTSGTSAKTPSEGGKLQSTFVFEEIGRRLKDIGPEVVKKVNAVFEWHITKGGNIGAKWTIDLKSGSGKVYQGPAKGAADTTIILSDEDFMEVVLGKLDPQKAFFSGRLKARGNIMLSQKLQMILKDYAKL
Description: The binding of HSD17B4 to tamoxifen was further confirmed using the MASPIT technology. The binary MASPIT assay was essentially performed as described before (Risseeuw et al., 2013). Briefly, HEK293T cells were seeded in black tissue-culture treated 96-well plates at 10.000 cells/well in 100 μl culture medium (DMEM supplemented with 10% fetal calf serum), and grown at 37° C., 8% CO2. Twenty-four hours later cells were transfected with a combination of the pCLG-eDHFR plasmid (Risseeuw et al., 2013), the pMG1-HSD17B4 construct and the pXP2d2-rPAP1-luciferase reporter (Caligiuri et al., 2006). The pMG1-HSD17B4 construct was generated by Gateway transfer of the full size HSD17B4 ORF, obtained as an entry clone in the hORFeome collection, into the Gateway compatible pMG1 prey destination vector as described earlier (Lievens et al., 2009). Twenty-four hours after transfection, cells were either left unstimulated or treated with 100 ng/ml leptin, with or without addition of MTX-PEG6-tamoxifen. Another 24 hours later, luciferase activity was assayed using the Luciferase Assay System kit (Promega).

[1] = all proteins (incl. low confidence identifications)
[2] = proteins identified with >1 peptide (high confidence)

T2 sequence (Q9NQC3 whole entry): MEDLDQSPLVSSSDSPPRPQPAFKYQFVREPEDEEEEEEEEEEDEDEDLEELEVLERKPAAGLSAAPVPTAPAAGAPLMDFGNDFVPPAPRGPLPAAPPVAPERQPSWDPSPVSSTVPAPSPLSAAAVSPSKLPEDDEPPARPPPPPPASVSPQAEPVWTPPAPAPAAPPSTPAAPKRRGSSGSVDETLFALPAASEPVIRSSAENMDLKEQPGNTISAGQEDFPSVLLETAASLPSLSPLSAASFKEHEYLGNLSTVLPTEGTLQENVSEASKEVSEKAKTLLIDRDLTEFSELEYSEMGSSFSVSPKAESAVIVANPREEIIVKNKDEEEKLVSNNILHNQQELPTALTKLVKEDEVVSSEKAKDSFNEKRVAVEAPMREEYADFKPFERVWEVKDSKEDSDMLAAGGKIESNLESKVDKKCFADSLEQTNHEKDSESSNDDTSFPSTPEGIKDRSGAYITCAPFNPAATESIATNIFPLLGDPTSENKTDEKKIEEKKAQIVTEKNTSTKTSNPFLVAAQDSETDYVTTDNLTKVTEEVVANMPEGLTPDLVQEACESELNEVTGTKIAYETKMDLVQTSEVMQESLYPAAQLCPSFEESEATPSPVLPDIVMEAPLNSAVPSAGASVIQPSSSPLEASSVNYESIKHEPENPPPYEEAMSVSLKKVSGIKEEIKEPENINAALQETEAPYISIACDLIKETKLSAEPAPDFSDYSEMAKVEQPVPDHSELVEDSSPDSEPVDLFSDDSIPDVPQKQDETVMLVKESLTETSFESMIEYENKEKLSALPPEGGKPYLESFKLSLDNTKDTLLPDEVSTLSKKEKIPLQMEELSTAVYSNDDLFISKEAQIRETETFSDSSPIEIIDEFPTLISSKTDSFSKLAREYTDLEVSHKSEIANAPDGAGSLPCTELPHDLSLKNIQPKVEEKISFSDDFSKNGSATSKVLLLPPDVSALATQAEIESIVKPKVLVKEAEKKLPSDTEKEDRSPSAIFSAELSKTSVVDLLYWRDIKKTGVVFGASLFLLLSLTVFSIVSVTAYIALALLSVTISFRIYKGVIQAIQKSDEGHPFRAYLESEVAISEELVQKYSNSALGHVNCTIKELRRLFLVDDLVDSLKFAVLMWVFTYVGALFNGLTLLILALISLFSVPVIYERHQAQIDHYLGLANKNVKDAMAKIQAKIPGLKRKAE
T4 sequence (P42892 whole entry): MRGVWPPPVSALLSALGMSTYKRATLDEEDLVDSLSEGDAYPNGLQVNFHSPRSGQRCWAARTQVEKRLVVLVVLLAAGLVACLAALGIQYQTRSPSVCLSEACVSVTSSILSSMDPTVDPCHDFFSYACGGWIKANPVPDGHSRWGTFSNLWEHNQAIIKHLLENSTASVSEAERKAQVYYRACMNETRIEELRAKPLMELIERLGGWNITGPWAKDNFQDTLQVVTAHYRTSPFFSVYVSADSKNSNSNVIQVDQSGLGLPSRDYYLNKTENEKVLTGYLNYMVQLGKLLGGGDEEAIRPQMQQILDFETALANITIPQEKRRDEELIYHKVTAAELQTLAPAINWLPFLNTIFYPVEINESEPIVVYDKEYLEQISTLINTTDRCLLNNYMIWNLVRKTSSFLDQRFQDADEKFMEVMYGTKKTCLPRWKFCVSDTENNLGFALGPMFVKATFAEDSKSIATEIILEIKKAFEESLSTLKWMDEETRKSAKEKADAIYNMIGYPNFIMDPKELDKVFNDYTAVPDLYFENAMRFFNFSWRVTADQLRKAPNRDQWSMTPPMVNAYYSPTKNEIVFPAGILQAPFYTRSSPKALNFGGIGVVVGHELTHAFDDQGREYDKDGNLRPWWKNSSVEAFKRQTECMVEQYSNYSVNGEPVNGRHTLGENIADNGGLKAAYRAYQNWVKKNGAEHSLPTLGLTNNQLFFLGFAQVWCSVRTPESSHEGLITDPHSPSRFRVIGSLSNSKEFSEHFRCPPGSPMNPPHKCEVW
T3 sequence (P60059 whole entry): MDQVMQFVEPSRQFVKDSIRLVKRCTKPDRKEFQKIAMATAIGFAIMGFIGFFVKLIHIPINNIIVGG
T3 sequence (P61619 whole entry partner): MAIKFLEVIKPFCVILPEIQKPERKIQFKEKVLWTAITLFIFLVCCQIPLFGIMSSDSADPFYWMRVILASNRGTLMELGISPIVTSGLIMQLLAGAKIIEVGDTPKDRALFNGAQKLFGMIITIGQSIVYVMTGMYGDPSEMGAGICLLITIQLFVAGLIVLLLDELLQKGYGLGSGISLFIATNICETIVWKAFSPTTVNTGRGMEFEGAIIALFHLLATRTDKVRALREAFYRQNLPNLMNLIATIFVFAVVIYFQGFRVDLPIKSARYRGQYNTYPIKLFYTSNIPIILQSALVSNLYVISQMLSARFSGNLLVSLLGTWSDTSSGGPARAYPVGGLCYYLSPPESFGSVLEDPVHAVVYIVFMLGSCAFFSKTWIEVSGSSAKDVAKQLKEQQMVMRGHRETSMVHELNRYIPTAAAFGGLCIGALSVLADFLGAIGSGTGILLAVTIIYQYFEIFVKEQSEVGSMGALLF
T3 sequence (P60468 2-96 partner limits assumed): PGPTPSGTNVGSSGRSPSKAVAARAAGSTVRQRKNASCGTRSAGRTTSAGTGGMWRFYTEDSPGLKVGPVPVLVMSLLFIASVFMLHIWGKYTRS
T10 sequence (Q12772 whole entry): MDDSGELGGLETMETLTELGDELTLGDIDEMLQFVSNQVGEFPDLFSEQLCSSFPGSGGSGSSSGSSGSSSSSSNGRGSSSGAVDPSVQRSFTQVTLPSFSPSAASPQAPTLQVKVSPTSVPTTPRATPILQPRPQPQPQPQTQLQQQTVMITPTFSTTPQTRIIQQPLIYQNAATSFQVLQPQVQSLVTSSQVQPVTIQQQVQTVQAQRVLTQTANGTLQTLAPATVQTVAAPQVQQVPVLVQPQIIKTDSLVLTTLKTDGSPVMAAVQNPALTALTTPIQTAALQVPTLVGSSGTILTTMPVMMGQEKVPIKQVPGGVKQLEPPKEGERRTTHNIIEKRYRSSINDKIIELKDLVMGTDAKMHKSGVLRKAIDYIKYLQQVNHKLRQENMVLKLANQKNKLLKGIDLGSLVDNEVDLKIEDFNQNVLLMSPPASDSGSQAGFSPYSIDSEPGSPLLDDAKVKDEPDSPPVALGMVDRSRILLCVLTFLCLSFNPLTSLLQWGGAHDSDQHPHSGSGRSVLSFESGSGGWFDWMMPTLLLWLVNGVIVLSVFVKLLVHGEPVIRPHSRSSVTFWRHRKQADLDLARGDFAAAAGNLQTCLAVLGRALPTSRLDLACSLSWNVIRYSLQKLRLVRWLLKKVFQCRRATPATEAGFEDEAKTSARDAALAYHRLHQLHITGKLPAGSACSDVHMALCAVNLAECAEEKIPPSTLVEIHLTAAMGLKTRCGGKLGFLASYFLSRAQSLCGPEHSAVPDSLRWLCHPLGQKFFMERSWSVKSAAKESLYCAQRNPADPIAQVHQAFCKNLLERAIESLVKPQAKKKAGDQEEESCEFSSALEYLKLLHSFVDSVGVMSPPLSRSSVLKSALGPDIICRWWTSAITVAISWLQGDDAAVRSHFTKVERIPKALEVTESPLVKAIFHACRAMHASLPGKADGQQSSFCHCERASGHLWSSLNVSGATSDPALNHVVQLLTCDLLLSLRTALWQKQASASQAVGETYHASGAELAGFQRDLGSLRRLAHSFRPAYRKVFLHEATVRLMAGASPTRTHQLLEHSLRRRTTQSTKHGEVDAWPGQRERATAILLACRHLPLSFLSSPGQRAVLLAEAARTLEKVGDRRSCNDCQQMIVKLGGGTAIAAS
T6 sequence (P62166 whole entry): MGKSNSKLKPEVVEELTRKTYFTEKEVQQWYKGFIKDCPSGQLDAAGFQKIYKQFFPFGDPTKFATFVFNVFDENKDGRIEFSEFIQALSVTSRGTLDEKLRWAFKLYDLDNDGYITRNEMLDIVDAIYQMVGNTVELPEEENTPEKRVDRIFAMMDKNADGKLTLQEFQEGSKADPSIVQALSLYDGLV
T12 sequence (P23805 21-371): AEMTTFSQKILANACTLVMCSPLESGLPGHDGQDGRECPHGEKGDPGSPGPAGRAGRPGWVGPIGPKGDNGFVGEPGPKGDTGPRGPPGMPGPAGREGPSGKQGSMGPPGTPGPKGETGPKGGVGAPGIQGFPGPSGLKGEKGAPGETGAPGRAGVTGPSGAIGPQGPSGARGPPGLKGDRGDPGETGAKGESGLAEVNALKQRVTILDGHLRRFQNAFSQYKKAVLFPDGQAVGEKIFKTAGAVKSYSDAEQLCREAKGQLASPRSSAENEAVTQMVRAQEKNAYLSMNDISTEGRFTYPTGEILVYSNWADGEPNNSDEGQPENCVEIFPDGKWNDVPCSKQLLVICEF
T1 sequence (Q9P035 whole entry): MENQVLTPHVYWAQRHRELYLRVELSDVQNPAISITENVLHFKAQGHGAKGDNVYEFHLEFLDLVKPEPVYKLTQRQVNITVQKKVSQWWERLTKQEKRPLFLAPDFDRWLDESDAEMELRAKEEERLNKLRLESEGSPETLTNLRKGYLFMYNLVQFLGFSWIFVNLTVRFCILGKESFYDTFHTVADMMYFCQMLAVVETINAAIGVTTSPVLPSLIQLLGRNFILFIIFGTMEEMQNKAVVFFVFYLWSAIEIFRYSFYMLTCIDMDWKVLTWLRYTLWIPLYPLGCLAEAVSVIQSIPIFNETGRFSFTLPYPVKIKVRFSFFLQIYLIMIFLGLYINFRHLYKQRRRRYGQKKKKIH
T8 sequence (O60831 whole entry): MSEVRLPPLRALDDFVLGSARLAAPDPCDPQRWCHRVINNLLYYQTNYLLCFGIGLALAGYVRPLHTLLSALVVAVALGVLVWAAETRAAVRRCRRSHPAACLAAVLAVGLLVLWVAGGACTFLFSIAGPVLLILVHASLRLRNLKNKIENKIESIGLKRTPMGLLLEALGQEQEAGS

For `CCC(=C(c1ccccc1)c1ccc(OCCN(C)Cc2cn(CCOCCOCCOCCOCCOCCNC(=O)CCC(NC(=O)c3ccc(N(C)Cc4cnc5nc(N)nc(N)c5n4)cc3)C(=O)O)nn2)cc1)c1ccccc1` (stereo not shown) [MTX-PEG6-tamoxifen], the “Recurrence (x/4)” value (PTPLAD1) was 1 x/4, the “Recurrence (x/4)” value (RTN4; [1]) was 1 x/4 and the “Recurrence (x/4)” value (RTN4; [2]) was 1 x/4. For the same compound, the “Recurrence (x/4)” value (SEC61G; [1]) was 2 x/4, the “Recurrence (x/4)” value (SEC61G; [2]) was 1 x/4 and the “Recurrence (x/4)” value (ECE1; [1]) was 1 x/4. For the same compound, the “Recurrence (x/4)” value (ECE1; [2]) was 1 x/4, the “Recurrence (x/4)” value (ILVBL) was 1 x/4 and the “Recurrence (x/4)” value (NCS1) was 1 x/4. For the same compound, the “Recurrence (x/4)” value (SEMA4G) was 1 x/4, the “Recurrence (x/4)” value (PRAF2) was 1 x/4 and the “Recurrence (x/4)” value (DNAJB12) was 1 x/4. For the same compound, the “Recurrence (x/4)” value (SREBF2) was 1 x/4, the “Recurrence (x/4)” value (HSD17B12) was 1 x/4 and the “Recurrence (x/4)” value (CGN1) was 1 x/4. For the same compound, the “luciferase activity (MASPIT signal)” value (HSD17B4) was “increased luciferase activity in a dose-dependent manner”.
